{
  "source": "patent US20210038730A1",
  "about": "“PEPTIDE NANOFIBERS” (UNIVERSITY OF PORTSMOUTH HIGHER EDUCATION CORPORATION, priority 2018, published 2021)",
  "key": {"hCMEC/D3 cells": {"test_system": "hCMEC/D3 cells", "experiment": "Cytotoxicity (MTT) in blood-brain barrier endothelial cells", "assay_type": "cell-based, human", "details": "3.5-140 μM, 4 and 24 hours", "method": "Human brain microvessel endothelial cells (hCMEC/D3) and cerebral astrocytes (SC-1800) were maintained in a humidified atmosphere of 5% CO2, and the medium was refreshed every 2-3 days. hCMEC/D3 cells were cultured in endothelial basal medium-2 (EBM-2) supplemented with the EGM-2 Bullet Kit and 2% (v/v) human serum. SC-1800 were cultured in astrocytes basal medium (ABM) supplemented with AGM Bullet Kit and 3% (v/v) human serum. […] Subsequently, complete growth medium (4 mL) was added and cells were centrifuged using a C-28A centrifuge (Boeco, Hamburg, Germany) at 1,000 rpm for 5 minutes. Supernatant was discarded, and pellet was re-suspended in 1 mL of medium. The cell number was counted using Trypan Blue Exclusion Assay in the Countess II Automated Cell Counter (Thermo Scientific, Paisley, UK). hCMEC/D3 and SC-1800 cells were seeded at 20,000 cells/cm^2 in complete medium and allowed to attach overnight. […] Cell metabolic activity was measured after 4 and 24 hours using (3-(4,5)-dimethylthiazol-2-yl)-2,5-diphenyltetrazolium bromide ([…]) assay. […] Subsequently, DMSO (100 μL) was added to dissolve the formazan crystals and absorbance was measured at 570 and 690 nm. Metabolic activity was calculated by subtracting the absorbance values at 690 nm to 570 nm to remove background, and dividing the values by the control to express as a percentage (%) of the control using the equation below. […]"}, "GnRH-R on U-87 MG cells": {"target": "T1, GnRH-R on U-87 MG cells (Homo sapiens, UniProt P30968)", "T1 construct": "endogenous in cells; host or cells: U-87 MG", "T1 sequence (P30968 1-328)": "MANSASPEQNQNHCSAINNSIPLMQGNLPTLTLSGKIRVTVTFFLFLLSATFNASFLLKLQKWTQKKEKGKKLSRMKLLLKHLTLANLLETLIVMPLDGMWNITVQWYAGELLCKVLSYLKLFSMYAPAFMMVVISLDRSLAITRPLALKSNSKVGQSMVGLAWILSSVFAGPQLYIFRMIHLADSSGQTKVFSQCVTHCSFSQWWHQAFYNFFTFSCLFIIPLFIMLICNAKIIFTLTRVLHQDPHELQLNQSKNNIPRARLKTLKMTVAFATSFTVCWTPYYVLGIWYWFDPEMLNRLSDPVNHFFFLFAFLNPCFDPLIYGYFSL", "experiment": "SMFS blocking experiments with free GnRH-R ligands", "assay_type": "binding", "method": "Blocking experiments were performed with different GnRH-R ligands (anti-GnRH-R antibody, Glu-GnRH, goserelin acetate, and TPGnRH). U-87 MG cells were analysed with tips functionalised with TPGnRH nanofibers and then the free ligands were added at a final concentration of 1 μg mL^−1 (anti-GnRH-R antibody) or 50 μg mL^−1 (Glu-GnRH, goserelin acetate and TPGnRH). U-87 MG cells treated with ligands were incubated for, at least, one hour at room temperature, and then the same cells were analysed with the same TPGnRH-functionalised tip at the same location in the cell."}},
  "data": [
    {"compound": "CCCCCCCCCCCCCCCC(=O)Oc1ccc(C[C@H](NC(=O)[C@H](CO)NC(=O)[C@H](Cc2c[nH]c3ccccc23)NC(=O)[C@H](Cc2c[nH]cn2)NC(=O)[C@@H](N)CCC(=O)O)C(=O)NCC(=O)N[C@@H](CC(C)C)C(=O)N[C@@H](CCCNC(=N)N)C(=O)N2CCC[C@H]2C(=O)NCC(N)=O)cc1", "note": "[TPGnRH, Tyrosine (O-Palmitoyl)-Glu-GnRH]", "values": [
      {"measurement": "cytotoxicity (metabolic activity, MTT)", "setting": "hCMEC/D3 cells", "value": "no cytotoxicity"},
      {"measurement": "Binding Probability of TPGnRH nanofiber tip to U-87 MG cells", "setting": "GnRH-R on U-87 MG cells; after pre-incubation with the free ligand named as label (antibody 1 μg mL^−1, peptides 50 μg mL^−1)", "value": 4.5, "unit": "%"},
      {"measurement": "Binding Probability of TPGnRH nanofiber tip to U-87 MG cells", "setting": "GnRH-R on U-87 MG cells; before addition of the free ligand named as label (no pre-incubation)", "value": 14.7, "unit": "%"}
    ]}
  ]
}
